In US7399770B2, “Thieno-imino acid derivatives for use as matrix metalloproteinase inhibitors” (SANOFI-AVENTIS Deutschland GmbH, priority 2004, dated 2008) one finds IC50 data, which are given here for 1 molecule.

Holding throughout (assay type): biochemical
What all share (details): fluorogenic substrate, pH 7.5

In assay [1] the target is T1, catalytic domain of human collagenase-1 (MMP-1) (Homo sapiens, UniProt P03956).
T1 construct: Determining the enzymatic activity of the catalytic domain of human collagenase-1 (MMP-1); purchased Biocol, Potsdam MMP1
T1 sequence (P03956 100-269 limits assumed): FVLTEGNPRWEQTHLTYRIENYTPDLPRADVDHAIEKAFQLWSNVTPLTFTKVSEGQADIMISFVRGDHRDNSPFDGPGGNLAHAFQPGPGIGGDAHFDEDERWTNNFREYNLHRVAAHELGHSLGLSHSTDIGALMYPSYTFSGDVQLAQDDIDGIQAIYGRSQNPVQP
Kind of assay: enzymatic activity of the catalytic domain of human collagenase-1 (MMP-1). As for the experimental part:
Determining the enzymatic activity of the catalytic domain of human collagenase-1 (MMP-1).
(§1) Activation of the Proenzyme:
2 parts by volume of proenzyme are incubated, at 37° C. for 1 hour, with 1 part by volume of APMA solution. The APMA solution is prepared from a 10 mmol/l solution of p-aminophenylmercuric acetate in 0.1 mmol/l NaOH by diluting with 3 parts by volume of Tris/HCl buffer pH 7.5 (see below). The pH is adjusted to between 7.0 and 7.5 by adding 1 mmol/l HCl. After the enzyme has been activated, it is diluted with the Tris/HCl buffer down to a concentration of 2.5 μg/ml. In order to measure the enzyme activity, 10 μl of enzyme solution are incubated, for 15 minutes, with 10 μl of a 3% (v/v) buffered solution of dimethyl sulfoxide (reaction 1). […]
Both in the case of reaction 1 and in the case of reaction 2, the enzyme reaction is monitored by fluorescence spectroscopy (328 nm (extinction)/393 nm (emission)) after 10 μl of a 3% (v/v) aqueous solution of dimethyl sulfoxide which contains 0.3 mmol of the substrate/l has been added. The enzyme activity is expressed as increase in extinction/minute. The inhibitor effect is calculated as percentage inhibition in accordance with the following formula: % inhibition=100−[(increase in extinction/minute in reaction 2)/(increase in extinction/minute in reaction 1)×100]. […]

Assay [2] deals with T2, catalytic domain of human gelatinase-B (MMP-9) (Homo sapiens, UniProt P14780).
T2 construct: Determining the enzymatic activity of the catalytic domain of human gelatinase-B (MMP-9); purchased Roche, Mannheim 1 758 896
T2 sequence (P14780 107-444 limits assumed): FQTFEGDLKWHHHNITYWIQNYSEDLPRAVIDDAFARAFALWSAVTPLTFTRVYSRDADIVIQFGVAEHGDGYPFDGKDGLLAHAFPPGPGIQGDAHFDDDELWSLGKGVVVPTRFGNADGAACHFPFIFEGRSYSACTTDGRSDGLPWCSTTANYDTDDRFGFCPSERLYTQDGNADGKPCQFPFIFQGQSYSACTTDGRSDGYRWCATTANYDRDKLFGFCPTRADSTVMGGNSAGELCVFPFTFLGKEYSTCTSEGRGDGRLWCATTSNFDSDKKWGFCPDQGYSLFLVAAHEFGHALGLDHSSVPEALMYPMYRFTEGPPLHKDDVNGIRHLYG
Put plainly: enzymatic activity of the catalytic domain of human gelatinase-B (MMP-9). As for the experimental part: Determining the enzymatic activity of the catalytic domain of human gelatinase-B (MMP-9).
as §1
2parts by volume of proenzyme were incubated, at 37° C. for 4 hours, with 1 part by volume of APMA solution. The APMA solution was prepared from a 10 mmol/l p-aminophenylmercuric acetate solution in 0.1 mmol/l NaOH by diluting with 3 parts by volume of Tris/HCl buffer, pH 7.5 (see below). The pH was adjusted to between 7.0 and 7.5 by adding 1 mmol/l HCl. After the enzyme had been activated, it was diluted with the Tris/HCl buffer down to a concentration of 4.2 mU/ml.
(§2) In order to measure the enzyme activity, 10 μl of enzyme solution were incubated, for 15 minutes, with 10 μl of a 3% (v/v) buffered solution of dimethyl sulfoxide (reaction 1). […]
Both in the case of reaction 1 and in the case of reaction 2, the enzyme reaction was monitored by fluorescence spectroscopy (328 nm (extinction)/393 nm (emission)) after 10 μl of a 3% (v/v) aqueous solution of dimethyl sulfoxide containing 0.15 mmol of the substrate/l had been added.
(§3) The enzyme activity was expressed as increase in extinction/minute.
(§4) The inhibitor effect was calculated as a percentage inhibition in accordance with the following formula: % inhibition=100−[(increase in extinction/minute in reaction 2)/(increase in extinction/minute in reaction 1)×100]. […]

Assay [3] deals with T3, catalytic domain of human neutrophil collagenase (MMP-8) (Homo sapiens, UniProt P22894).
T3 construct: catalytic domains of human stromelysin (MMP-3) and neutrophil collagenase (MMP-8); made in house
T3 sequence (P22894 100-262 limits assumed): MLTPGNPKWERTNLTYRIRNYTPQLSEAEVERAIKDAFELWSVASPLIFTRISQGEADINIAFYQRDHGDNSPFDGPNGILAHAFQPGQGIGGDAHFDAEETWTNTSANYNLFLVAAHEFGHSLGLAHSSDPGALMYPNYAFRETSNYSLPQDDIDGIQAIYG
Put plainly: enzymatic activity of the catalytic domain of human neutrophil collagenase (MMP-8). As for the experimental part:
(§5) Preparation, and determination of the enzymatic activity, of the catalytic domains of human stromelysin (MMP-3) and neutrophil collagenase (MMP-8).
(§6) The two enzymes, i.e. stromelysin (MMP-3) and neutrophil collagenase (MMP-8), were prepared in accordance with Ye et al. (Biochemistry; 31 (1992) pages 11231-11235). In order to measure the enzyme activity, or the enzyme inhibitor effect, 10 μl of enzyme solution were incubated, for 15 minutes, with 10 μl of a 3% (v/v) buffered solution of dimethyl sulfoxide which contained the enzyme inhibitor, where appropriate. After 10 μl of a 3% (v/v) aqueous solution of dimethyl sulfoxide containing 1 mmol of the substrate/l had been added, the enzyme reaction was monitored by fluorescence spectroscopy (328 nm (ex)/393 nm (em)).
(§7) The enzyme activity is expressed as increase in extinction/minute. The IC50 values listed in table 2 were determined as being those inhibitor concentrations which in each case led to a 50% inhibition of the enzyme.
(§8) The buffer solution contained 0.05% Brij (Sigma, Deisenhofen, Germany) and also 0.1 mol of Tris/HCl/l, 0.1 mol of NaCl/l, 0.01 mol of CaCl2/l and 0.1 mol of piperazine-N,N′-bis[2-ethanesulfonic acid]/l (pH=7.5). […]

For assay [4], the target named is T4, catalytic domain of human stromelysin (MMP-3) (Homo sapiens, UniProt P08254).
T4 construct: catalytic domains of human stromelysin (MMP-3) and neutrophil collagenase (MMP-8); made in house
T4 sequence (P08254 100-272 limits assumed): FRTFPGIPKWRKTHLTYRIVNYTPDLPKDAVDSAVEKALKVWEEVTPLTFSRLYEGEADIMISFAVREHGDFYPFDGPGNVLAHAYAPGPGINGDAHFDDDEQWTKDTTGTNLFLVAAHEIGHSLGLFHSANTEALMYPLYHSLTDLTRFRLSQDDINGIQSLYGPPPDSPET
Put plainly: enzymatic activity of the catalytic domain of human stromelysin (MMP-3). As for the experimental part: as §5, §6, §7, §8

The target in assay [5] is T5, catalytic domain of human gelatinase-A (MMP-2) (Homo sapiens, UniProt P08253).
T5 construct: Determining the enzymatic activity of the catalytic domain of human gelatinase-A (MMP-2); purchased INVITEK, Berlin 30 100 602
T5 sequence (P08253 110-465 limits assumed): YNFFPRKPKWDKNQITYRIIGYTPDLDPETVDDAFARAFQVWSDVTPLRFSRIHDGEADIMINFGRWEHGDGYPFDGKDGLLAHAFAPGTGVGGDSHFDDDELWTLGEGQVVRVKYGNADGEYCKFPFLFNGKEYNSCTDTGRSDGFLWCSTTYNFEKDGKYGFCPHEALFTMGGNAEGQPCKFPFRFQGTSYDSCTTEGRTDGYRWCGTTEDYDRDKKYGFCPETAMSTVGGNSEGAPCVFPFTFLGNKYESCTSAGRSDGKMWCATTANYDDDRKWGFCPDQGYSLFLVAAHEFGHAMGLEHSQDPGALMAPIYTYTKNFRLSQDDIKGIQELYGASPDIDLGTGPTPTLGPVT
Put plainly: enzymatic activity of the catalytic domain of human gelatinase-A (MMP-2). As for the experimental part:
Determining the enzymatic activity of the catalytic domain of human gelatinase-A (MMP-2).
as §1
2 parts by volume of proenzyme were incubated, at 37° C. for 0.5 hour, with 1 part by volume of APMA solution. The APMA solution was prepared from a 10 mmol/l p-aminophenylmercuric acetate solution in 0.1 mmol/l NaOH by diluting with 3 parts by volume of Tris/HCl buffer pH 7.5 (see below). The pH was adjusted to between 7.0 and 7.5 by adding 1 mmol HCl/l. After the enzyme had been activated, it was diluted with the Tris/HCl buffer down to a concentration of 0.83 μg/ml. In order to measure the enzyme activity, 10 μl of enzyme solution were incubated, for 15 minutes, with 10 μl of a 3% (v/v) buffered solution of dimethyl sulfoxide (reaction 1). […]
Both in the case of reaction 1 and in the case of reaction 2, the enzyme reaction was monitored by fluorescence spectroscopy (328 nm (extinction)/393 nm (emission)) after 10 μl of a 3% (v/v) aqueous solution of dimethyl sulfoxide containing 0.3 mmol of the substrate/l had been added.
as §3, §4

Assay [6] addresses T6, catalytic domain of human collagenase-3 (MMP-13) (Homo sapiens, UniProt P45452).
T6 construct: Determining the enzymatic activity of the catalytic domain of human collagenase-3 (MMP-13); purchased INVITEK, Berlin 30 100 803
Kind of assay: enzymatic activity of the catalytic domain of human collagenase-3 (MMP-13). As for the experimental part:
Determining the enzymatic activity of the catalytic domain of human collagenase-3 (MMP-13).
as §1
2 parts by volume of proenzyme were incubated, at 37° C. for 1.5 hours, with 1 part by volume of APMA solution. The APMA solution was prepared from a 10 mmol/l solution of p-aminophenylmercuric acetate in 0.1 mmol/l NaOH by diluting with 3 parts by volume of Tris/HCl buffer pH 7.5 (see below). The pH was adjusted to between 7.0 and 7.5 by adding 1 mmol/l HCl. After the enzyme had been activated, it was diluted with the Tris/HCl buffer down to a concentration of 1.67 μg/ml.
as §2
Both in the case of reaction 1 and in the case of reaction 2, the enzyme reaction was monitored by fluorescence spectroscopy (328 nm (extinction)/393 nm (emission)) after 10 μl of a 3% (v/v) aqueous solution of dimethyl sulfoxide containing 0.075 mmol of the substrate/l had been added. […]
as §4

Molecules are shown by their SMILES.

One may read the IC50 as the concentration at which inhibition is half-maximal. High values mean weaker potency in that assay, low ones greater potency in that assay. As to `O=C(NO)C1c2c(sc3ccccc23)C(O)CN1S(=O)(=O)c1ccc(-c2ccc(Cl)cc2)cc1` (stereo not drawn) [Example 1, 2-(4′-Chlorobiphenyl-4-sulfonyl)-4-hydroxy-1,2,3,4-tetrahydrobenzo[4,5]thieno[3,2-c]pyridine-1-carboxylic acid hydroxyamide], the IC50 in assay [1] turned out to be 700 nM; in assay [2] it was 3.5 nM; in assay [3] it was 13 nM; in assay [4], 70 nM; in assay [5] it was 2.5 nM; in assay [6] it was 6.3 nM.
